“And” between values parts separate entries of the source, which are not always exact repeats. Identical values can stand only once.
Key:
[1] = Toxicity studies in mice (determination of NOAEL); type: in vivo, mouse
Description: In the mouse, seizures occurred at single doses of 100 and 300 mg/kg lorcaserin, and death followed single doses of 1000 and 2000 mg/kg. In repeat dose studies in mice, mortality occurred at
doses ≧200 mg/kg. A dose of 250 mg/kg/day produced exposure multiples of 25 and 27 times (males and females) the exposure achieved in humans at a dose of 10 mg BID. At this dose, decreased red blood cell mass, increased reticulocytosis, increased liver weight, centrilobular hepatocellular hypertrophy, increased extramedullary hematopoeisis, and thymic necrosis occurred. The NOAEL in mice was 50 mg/kg/day, which produced exposure multiples of 7.6 and 2.3 (males and females) times the exposure in humans at 10 mg BID.

[2] = Toxicity studies in monkeys (single dose, 28-day, 13-week, 12-month); type: in vivo, cynomolgus monkeys; conditions: for Exposure multiple relative to human exposure at 10 mg BID: monkeys 100 mg/kg/day
Description: In cynomolgus monkeys, dose-limiting emesis occurred at 300 mg/kg single dose. In repeat
In a 28-day repeat dose study, one male given 100 mg/kg/day experienced a seizure. […] Reduced weight gain and food consumption occurred in 28-day, 13-week and 12-month studies at doses ≧10 mg/kg/day. Cholesterol, LDL and HDL decreased at ≧10 mg/kg/day in the 12-month study. […] The NOAEL was considered to be 2 mg/kg/day.
This animal continued treatment on Day 2 and no further seizures were observed throughout the duration of the study. […] A reduction in serum lipids (cholesterol, HDL, and LDL) was measured in both sexes treated with ≧10 mg/kg doses of lorcaserin. Reductions in total cholesterol and LDL occurred in some animals treated with 2 mg/kg as well. There was a dose-independent reduction in the mean triglyceride concentration in both sexes at ≧2 mg/kg. Mild increases in ALT occurred primarily in females at all dose levels and in one control animal. White blood cells in the urine of some females dosed at ≧50 mg/kg/day were thought to be associated with renal tubular changes noted histologically in three out of five cases.
There were no lorcaserin-related gross findings. Histologic changes were identified in the kidneys, ovaries, and possibly in the liver. Changes in the kidney consisted of focal or multifocal tubular epithelial cell degeneration, regeneration, and cellular casts. […] The histologic renal changes attributed to lorcaserin were not associated with changes in serum chemistry or kidney function. A review of the renal findings was conducted by two expert human renal pathologists, each of whom independently read blinded slides and reached the same conclusion: the administration of lorcaserin to monkeys for 12 months was not associated with drug-related renal pathology. […] One of these pathologists attributed the potential finding of regeneration to a staining artifact resulting in a bluish cytoplasmic discoloration. […] This change was reversible after a one month drug-free interval. […] The lipidosis was not present in animals sacrificed after a one month drug-free interval. No changes were identified by the study pathologist or the peer review pathologist in the heart, heart valves, pulmonary vessels or lungs of animals given lorcaserin compared to controls.
Changes in the kidney consisted of focal tubular epithelial cell degeneration, regeneration, and cellular casts. […] These findings were not observed in previous monkey studies, and no similar kidney findings occurred in rodents. Renal findings were determined to be unrelated to lorcaserin treatment by two independent human renal pathologists after reviewing blinded slide sets. In their independent opinions, the findings were not dose related and were consistent with age and focal inflammation or infection. One pathologist attributed the findings of regeneration to a staining artifact, resulting in a bluish cytoplasmic discoloration. If tubular renal epithelial regeneration were artifactual, renal findings of the conducting laboratory would be limited to the high dose. At 2, 10, 50, and 125 mg/kg, the margins were 1.0 and 0.6, 8 and 5, 44 and 31, and 51 and 51 times human exposure at the MRD for males and females, respectively. Renal findings in rodents and monkeys were of uncertain relationship to lorcaserin. Substantial margins over human exposure exist for all renal finding in rodents, and in monkeys according to two expert human renal pathologists. Even assuming the renal findings in monkeys are drug related, the principal findings were focal or multifocal, minimal to mild (1 instance of moderate regeneration at the high dose) renal tubular epithelial regeneration and degeneration that would have had to have been much more severe and diffuse to be of clinical relevance. Based upon adverse events, clinical chemistry and urinalyses in an extensive phase 2 and phase 3 program, there is no evidence of a lorcaserin effect on the kidney in humans.

## C[C@H]1CNCCc2ccc(Cl)cc21 [Lorcaserin, (R)-8-chloro-1-methyl-2,3,4,5-tetrahydro-1H-3-benzazepine]
[1]; both sexes, mouse, in vivo, mice
  NOAEL: 50 mg/kg/day
[1]; mice 50 mg/kg/day (NOAEL), females
  Exposure multiple of human exposure at 10 mg BID: 2.3 times
[1]; mice 50 mg/kg/day (NOAEL), males
  Exposure multiple of human exposure at 10 mg BID: 7.6 times
[1]; mice 250 mg/kg/day, females
  Exposure multiple of human exposure at 10 mg BID: 27 times
[1]; mice 250 mg/kg/day, males
  Exposure multiple of human exposure at 10 mg BID: 25 times
[1]; mice, repeat dose studies
  Doses at which mortality occurred: ≥ 200 mg/kg
[1]; mouse
  Single doses followed by death: 1000 mg/kg and 2000 mg/kg
[2]; both sexes, cynomolgus monkey, in vivo, oral, monkeys, 12-month study
  NOAEL at 12 months: 2 mg/kg/day
[2]; cynomolgus monkey, in vivo, oral, monkeys, repeat dose studies, read-out: Maximum tolerated dose
  MTD: 100 to 125 mg/kg/day
[2]; cynomolgus monkeys
  Single dose with dose-limiting emesis: 300 mg/kg
[2]; monkeys 2 mg/kg, females
  Margin, times human exposure at the MRD: 0.6 times
[2]; monkeys 2 mg/kg, males
  Margin, times human exposure at the MRD: 1.0 times
[2]; monkeys 10 mg/kg, females
  Margin, times human exposure at the MRD: 5 times
[2]; monkeys 10 mg/kg, males
  Margin, times human exposure at the MRD: 8 times
[2]; monkeys 50 mg/kg, females
  Margin, times human exposure at the MRD: 31 times
[2]; monkeys 50 mg/kg, males
  Margin, times human exposure at the MRD: 44 times
[2]; females
  Exposure multiple relative to human exposure at 10 mg BID: 68
[2]; males
  Exposure multiple relative to human exposure at 10 mg BID: 74
[2]; monkeys 125 mg/kg, females
  Margin, times human exposure at the MRD: 51 times
[2]; monkeys 125 mg/kg, males
  Margin, times human exposure at the MRD: 51 times
[2]; monkeys 12 months, 2 mg/kg
  Animals with focal renal tubular epithelial cell degeneration and/or regeneration (minimal to mild regeneration in renal cortex): 1/8
  Females with cystic ovarian follicles: 0/4
[2]; monkeys 12 months, 2 mg/kg/day
  Animals with hepatic lipidosis: 4/8
[2]; monkeys 12 months, 10 mg/kg
  Animals with focal renal tubular epithelial cell degeneration and/or regeneration (minimal to mild regeneration in renal cortex): 2/8
  Females with cystic ovarian follicles: 1/4
[2]; monkeys 12 months, 10 mg/kg/day
  Animals with hepatic lipidosis: 2/8
[2]; monkeys 12 months, 50 mg/kg
  Animals with focal renal tubular epithelial cell degeneration and/or regeneration (minimal to mild regeneration in renal cortex): 3/8
  Females with cystic ovarian follicles: 1/4
  Males with cellular casts: 1/4
[2]; monkeys 12 months, 50 mg/kg/day
  Animals with hepatic lipidosis: 3/8
[2]; monkeys 12 months, 125 mg/kg
  Animals with cellular casts: 4/4
  Animals with focal renal tubular epithelial cell degeneration and/or regeneration (minimal to mild regeneration in renal cortex): 6/8
  Females with cellular casts: 2/4
  Females with cystic ovarian follicles: 3/4
  Males with cellular casts: 1/4
[2]; monkeys 12 months, 125 mg/kg group
  Animals with regeneration (incl. moderate): 7/8
[2]; monkeys 12 months, 250 mg/kg/day
  Animals with hepatic lipidosis: 4/8
[2]; monkeys 12 months, both sexes
  Doses with dose-dependent decrease in activity and hunched appearance: ≥ 10 mg/kg
[2]; monkeys 12 months, high dose
  Females with moderate epithelial regeneration: 1/4
[2]; monkeys 12 months, high dose group (125 mg/kg)
  Animals with minimal to mild tubular epithelial degeneration: 6 of 8
[2]; monkeys, 12-month study
  Doses at which cholesterol, LDL and HDL decreased: ≥ 10 mg/kg/day
  Lorcaserin-related deaths: no lorcaserin-related deaths
[2]; monkeys, 28-day, 13-week and 12-month studies
  Doses with reduced weight gain and food consumption: ≥ 10 mg/kg/day
